# Test results taken from ChEMBL document CHEMBL5126554, “Occurrence, synthesis and biological activity of 2-(2-phenyethyl)chromones” (Eur J Med Chem, 2022).
# Assays:
# Acetylcholinesterase [1] = target: T1, Acetylcholinesterase (Homo sapiens, UniProt P22303); conditions: dose 50.0 mg/ml, time 1.0 hrs
# A549 [2] = experiment: Cytotoxicity against human A549 cells by MTT assay; format: functional, cell-based
# RAW264.7 = experiment: Inhibition of NO production in LPS stimulated mouse RAW264.7 cells by Griess reagent based analysis; format: functional, cell-based
# Staphylococcus aureus = experiment: Antibacterial activity against methicillin-resistant Staphylococcus aureus assessed as inhibition of bacterial growth incubated for 24 hrs by broth microdilution assay; format: functional, organism-based
# [3] = Antioxidant activity assessed as inhibition of DPPH radical scavenging activity by measuring reduction in absorbance at 100 uM by spectrophotometric analysis relative to control; format: functional
# SGC-7901 = experiment: Cytotoxicity against human SGC-7901 cells; format: functional, cell-based
# Bel-7402 = experiment: Cytotoxicity against human Bel-7402 cells; format: functional, cell-based
# K562 = experiment: Cytotoxicity against human K562 cells; format: functional, cell-based
# HeLa = experiment: Cytotoxicity against human HeLa cells; format: functional, cell-based
# A549 [4] = experiment: Cytotoxicity against human A549 cells; format: functional, cell-based
# [5] = target: cGMP-specific 3',5'-cyclic phosphodiesterase (Homo sapiens, UniProt O76074); experiment: Inhibition of human recombinant PDE5A1 using FAM-cGMP as substrate incubated for 60 mins by fluorescence polarization method
# [6] = target: cGMP-inhibited 3',5'-cyclic phosphodiesterase 3A (Homo sapiens, UniProt Q14432); experiment: Inhibition of human recombinant PDE3A using FAM-cAMP as substrate incubated for 60 mins by fluorescence polarization method
# cGMP-inhibited 3',5'-cyclic phosphodiesterase 3A, sequence (Q14432 whole entry): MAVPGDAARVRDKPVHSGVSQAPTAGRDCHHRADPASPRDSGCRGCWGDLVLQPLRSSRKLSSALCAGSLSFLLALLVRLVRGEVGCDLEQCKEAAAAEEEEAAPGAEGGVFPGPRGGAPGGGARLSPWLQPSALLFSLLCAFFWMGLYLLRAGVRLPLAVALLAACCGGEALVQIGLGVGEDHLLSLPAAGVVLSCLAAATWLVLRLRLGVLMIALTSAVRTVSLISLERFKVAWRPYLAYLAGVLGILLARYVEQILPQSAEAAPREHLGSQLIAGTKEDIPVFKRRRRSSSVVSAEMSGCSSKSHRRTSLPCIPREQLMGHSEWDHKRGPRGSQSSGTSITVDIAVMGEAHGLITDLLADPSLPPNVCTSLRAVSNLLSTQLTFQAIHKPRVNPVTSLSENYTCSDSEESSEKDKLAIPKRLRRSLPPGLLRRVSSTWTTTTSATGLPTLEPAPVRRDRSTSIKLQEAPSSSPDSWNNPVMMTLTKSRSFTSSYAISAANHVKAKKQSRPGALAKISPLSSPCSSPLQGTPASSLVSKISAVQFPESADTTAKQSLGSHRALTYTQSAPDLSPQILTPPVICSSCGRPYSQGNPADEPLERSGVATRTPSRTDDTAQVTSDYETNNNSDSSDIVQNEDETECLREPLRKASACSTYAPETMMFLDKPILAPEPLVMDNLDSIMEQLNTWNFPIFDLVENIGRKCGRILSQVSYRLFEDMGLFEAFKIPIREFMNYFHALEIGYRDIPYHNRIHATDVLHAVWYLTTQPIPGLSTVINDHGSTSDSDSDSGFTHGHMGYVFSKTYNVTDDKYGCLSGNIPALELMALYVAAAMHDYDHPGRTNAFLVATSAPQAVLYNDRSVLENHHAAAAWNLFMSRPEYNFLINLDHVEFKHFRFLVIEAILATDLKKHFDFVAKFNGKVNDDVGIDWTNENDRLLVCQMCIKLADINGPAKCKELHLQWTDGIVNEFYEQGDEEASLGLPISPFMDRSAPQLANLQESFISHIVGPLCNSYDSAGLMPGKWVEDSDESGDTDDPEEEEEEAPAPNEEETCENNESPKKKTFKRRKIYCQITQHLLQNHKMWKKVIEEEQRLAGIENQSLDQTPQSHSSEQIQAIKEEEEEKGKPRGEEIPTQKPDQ
# Mushroom tyrosinase = Mushroom tyrosinase (Agaricus bisporus, UniProt O42713+Q00024+C7FF04+C7FF05); experiment: Inhibition of mushroom tyrosinase activity using L-tyrosine as substrate preincubated for 5 mins followed by substrate addition and measured after 20 mins by microplate reader analysis
# [7] = target: Nuclear factor NF-kappa-B complex (Homo sapiens) (UniProt Q00653+P19838+Q04206); experiment: Inhibition of LPS induced NF-kappaB activation (unknown origin) assessed as relative luciferase activity; format: protein-complex assay
# Nuclear factor NF-kappa-B complex (Homo sapiens), sequence (P19838 whole entry, looked up): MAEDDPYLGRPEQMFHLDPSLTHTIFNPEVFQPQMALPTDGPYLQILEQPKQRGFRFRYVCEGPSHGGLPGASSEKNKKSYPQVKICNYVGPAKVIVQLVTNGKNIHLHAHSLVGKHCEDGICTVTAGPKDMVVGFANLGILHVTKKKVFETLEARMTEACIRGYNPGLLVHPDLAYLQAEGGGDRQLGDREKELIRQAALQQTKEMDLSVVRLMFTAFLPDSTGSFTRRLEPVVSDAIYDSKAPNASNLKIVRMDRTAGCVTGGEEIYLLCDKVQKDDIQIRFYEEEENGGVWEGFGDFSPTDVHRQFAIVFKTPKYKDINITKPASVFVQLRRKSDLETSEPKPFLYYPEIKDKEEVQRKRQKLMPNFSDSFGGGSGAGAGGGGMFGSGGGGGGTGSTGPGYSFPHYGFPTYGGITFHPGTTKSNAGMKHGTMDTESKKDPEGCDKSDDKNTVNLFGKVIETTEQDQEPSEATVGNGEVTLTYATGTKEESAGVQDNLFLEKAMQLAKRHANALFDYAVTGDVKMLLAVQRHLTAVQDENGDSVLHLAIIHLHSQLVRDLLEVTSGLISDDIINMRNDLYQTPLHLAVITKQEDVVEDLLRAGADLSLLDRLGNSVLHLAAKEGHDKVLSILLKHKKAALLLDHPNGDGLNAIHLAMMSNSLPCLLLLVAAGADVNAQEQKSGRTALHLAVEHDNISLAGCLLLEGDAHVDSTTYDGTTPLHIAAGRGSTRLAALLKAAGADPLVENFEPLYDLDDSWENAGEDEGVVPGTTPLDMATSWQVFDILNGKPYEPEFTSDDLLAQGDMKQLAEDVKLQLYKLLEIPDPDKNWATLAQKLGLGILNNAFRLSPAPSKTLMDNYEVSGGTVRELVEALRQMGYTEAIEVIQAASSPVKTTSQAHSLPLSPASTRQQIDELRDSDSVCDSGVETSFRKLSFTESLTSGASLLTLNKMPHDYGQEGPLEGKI
# Nuclear factor NF-kappa-B complex (Homo sapiens), sequence (Q00653 whole entry, looked up): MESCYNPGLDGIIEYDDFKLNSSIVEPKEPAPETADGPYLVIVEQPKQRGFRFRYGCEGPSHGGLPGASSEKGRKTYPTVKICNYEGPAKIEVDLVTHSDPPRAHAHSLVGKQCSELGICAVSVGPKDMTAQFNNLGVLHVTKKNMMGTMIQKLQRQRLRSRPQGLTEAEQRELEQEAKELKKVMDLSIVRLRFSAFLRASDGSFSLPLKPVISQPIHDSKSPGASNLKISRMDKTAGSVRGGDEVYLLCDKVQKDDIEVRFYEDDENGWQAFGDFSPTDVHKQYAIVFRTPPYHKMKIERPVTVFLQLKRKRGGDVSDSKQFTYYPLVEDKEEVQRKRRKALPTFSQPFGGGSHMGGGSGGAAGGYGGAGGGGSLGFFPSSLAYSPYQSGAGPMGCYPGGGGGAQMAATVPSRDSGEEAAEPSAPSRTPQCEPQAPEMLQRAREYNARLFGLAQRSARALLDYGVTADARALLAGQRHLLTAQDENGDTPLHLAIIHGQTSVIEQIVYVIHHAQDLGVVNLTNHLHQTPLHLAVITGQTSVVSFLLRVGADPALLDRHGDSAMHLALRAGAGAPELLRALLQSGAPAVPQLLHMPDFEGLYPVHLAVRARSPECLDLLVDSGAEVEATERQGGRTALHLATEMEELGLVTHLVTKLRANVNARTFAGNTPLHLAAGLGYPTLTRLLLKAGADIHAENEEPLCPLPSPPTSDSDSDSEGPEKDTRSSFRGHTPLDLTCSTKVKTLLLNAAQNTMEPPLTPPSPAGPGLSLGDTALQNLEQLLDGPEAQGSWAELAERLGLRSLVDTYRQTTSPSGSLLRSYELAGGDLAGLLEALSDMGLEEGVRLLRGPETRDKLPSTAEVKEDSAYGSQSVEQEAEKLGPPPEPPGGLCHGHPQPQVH
# Nuclear factor NF-kappa-B complex (Homo sapiens), sequence (Q04206 whole entry, looked up): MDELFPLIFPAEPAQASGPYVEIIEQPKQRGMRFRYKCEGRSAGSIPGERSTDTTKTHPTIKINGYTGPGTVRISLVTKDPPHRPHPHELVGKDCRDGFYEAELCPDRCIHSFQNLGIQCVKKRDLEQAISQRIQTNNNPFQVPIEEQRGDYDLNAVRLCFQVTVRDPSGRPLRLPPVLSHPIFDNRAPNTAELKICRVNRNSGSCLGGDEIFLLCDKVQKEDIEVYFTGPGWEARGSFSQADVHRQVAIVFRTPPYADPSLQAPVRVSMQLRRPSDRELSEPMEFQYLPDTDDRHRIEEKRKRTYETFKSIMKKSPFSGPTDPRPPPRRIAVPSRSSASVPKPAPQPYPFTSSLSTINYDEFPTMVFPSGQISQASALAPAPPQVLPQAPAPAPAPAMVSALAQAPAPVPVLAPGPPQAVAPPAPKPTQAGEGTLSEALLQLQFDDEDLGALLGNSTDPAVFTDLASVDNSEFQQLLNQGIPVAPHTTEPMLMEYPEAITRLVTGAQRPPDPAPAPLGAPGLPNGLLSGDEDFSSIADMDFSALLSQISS
# Acetylcholinesterase [8] = target: T1, Acetylcholinesterase; experiment: Inhibition of AChE (unknown origin) by spectrophotometric based Ellman's method
# T1 sequence (P22303 whole entry): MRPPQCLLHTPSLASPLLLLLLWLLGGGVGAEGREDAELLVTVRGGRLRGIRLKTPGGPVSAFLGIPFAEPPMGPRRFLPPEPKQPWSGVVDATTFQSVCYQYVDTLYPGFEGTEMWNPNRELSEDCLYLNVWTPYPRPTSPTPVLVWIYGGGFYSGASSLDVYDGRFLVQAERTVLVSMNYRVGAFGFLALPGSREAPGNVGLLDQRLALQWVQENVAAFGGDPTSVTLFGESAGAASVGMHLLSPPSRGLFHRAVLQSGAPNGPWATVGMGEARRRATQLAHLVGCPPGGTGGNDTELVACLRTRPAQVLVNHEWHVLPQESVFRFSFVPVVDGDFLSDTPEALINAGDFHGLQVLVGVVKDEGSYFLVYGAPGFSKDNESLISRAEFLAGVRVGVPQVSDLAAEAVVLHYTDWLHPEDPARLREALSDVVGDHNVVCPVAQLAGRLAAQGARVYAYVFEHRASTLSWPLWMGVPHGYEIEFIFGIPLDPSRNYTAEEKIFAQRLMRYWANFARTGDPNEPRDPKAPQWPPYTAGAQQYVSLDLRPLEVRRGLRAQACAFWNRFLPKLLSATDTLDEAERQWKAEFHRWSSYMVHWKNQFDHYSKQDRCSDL
smiles,measurement,setting,value
O=c1cc(CCc2ccccc2)oc2c1[C@H](O)[C@@H](O)[C@H]1O[C@@H]21,inhibition,Acetylcholinesterase [1],17.5%
C=C(C)[C@H]1CC[C@@]2(C)CCC=C(C(=O)O[C@H]3c4oc(CCc5ccccc5)cc(=O)c4[C@@H](O)[C@H](O)[C@@H]3O)[C@H]2C1,IC50,A549 [2],17.6 µM
O=c1cc(CCc2ccccc2)oc2c1[C@H](O)[C@H](O)[C@H](O)[C@H]2Cl,IC50,RAW264.7,1.6 µM
COc1ccc(CCc2cc(=O)c3c(O)ccc(OC)c3o2)cc1,IC50,Staphylococcus aureus,220 µM
O=c1cc(CCc2ccc(O)cc2)oc2cc(O)cc(O)c12,inhibition,[3],56.1%
COc1ccc(CCc2cc(=O)c3cc(O)c(OC)cc3o2)cc1,IC50,SGC-7901,5.76 µM
same,IC50,Bel-7402,5.76 µM
same,IC50,K562,5.76 µM
COc1ccc(CCc2cc(=O)c3c(o2)[C@@H](O)[C@H](O)[C@@H]2O[C@H]32)cc1,IC50,RAW264.7,1.6 µM
C=C(CO[C@H]1c2c(oc(CCc3ccc(OC)cc3)cc2=O)[C@H]2O[C@H]2[C@H]1O)[C@@H]1CC[C@]2(C)CCC[C@H](C)[C@@]2(C)C1,IC50,SGC-7901,10.9 µM
same,IC50,K562,10.9 µM
same,IC50,HeLa,10.9 µM
same,IC50,A549 [4],10.9 µM
O=c1cc(CCc2ccccc2)oc2c1[C@@H]1c3c(ccc4oc(CCc5ccccc5)cc(=O)c34)O[C@@H]([C@@H]1O)[C@H]2O,IC50,SGC-7901,10.9 µM
same,IC50,K562,10.9 µM
same,IC50,HeLa,10.9 µM
same,IC50,A549 [4],10.9 µM
O=c1cc(CCc2ccc(O)cc2)oc2cc(OC3O[C@H](CO)[C@@H](O)[C@H](O)[C@H]3O)cc(O)c12 (stereo partly drawn),inhibition,[3],56.1%
COc1ccc(CCc2cc(=O)c3c(o2)[C@H](O)[C@H]2Oc4cc5oc(CCc6ccc(OC)cc6)cc(=O)c5cc4O[C@@H]3[C@H]2O)cc1,IC50,Bel-7402,42.1 µM
COc1ccc(CCc2cc(=O)c3c(o2)[C@H](Cl)[C@@H](O)[C@@H](O)[C@H]3O)cc1,IC50,RAW264.7,1.6 µM
O=c1cc(CCc2ccccc2)oc2c1[C@H]1c3c(ccc4oc(CCc5ccccc5)cc(=O)c34)O[C@H]([C@H]1O)[C@@H]2O,IC50,SGC-7901,10.9 µM
same,IC50,K562,10.9 µM
same,IC50,HeLa,10.9 µM
same,IC50,A549 [4],10.9 µM
O=c1cc(CCc2ccccc2)oc2cc(O)c(O)cc12,IC50,SGC-7901,5.76 µM
same,IC50,Bel-7402,5.76 µM
same,IC50,K562,5.76 µM
COc1ccc(CCc2cc(=O)c3c(o2)[C@H]2O[C@H]2[C@@H](O)[C@@H]3O)cc1,inhibition,Acetylcholinesterase [1],17.5%
COc1ccc(CCc2cc(=O)c3cc(OC)c(O)cc3o2)cc1,IC50,Staphylococcus aureus,220 µM
O=c1cc(CCc2ccc(O)c(O)c2)oc2cc(O)cc(O)c12,inhibition,[3],91.2%
O=C(CCc1ccccc1)O[C@@H]1c2oc(CCc3ccccc3)cc(=O)c2[C@H](O)[C@@H](O)[C@H]1O,IC50,[5],15.1 µM
same,IC50,[6],42.6 µM
COc1ccc(CCc2cc(=O)c3c(o2)[C@H](Cl)[C@H](O)[C@H](O)[C@@H]3O)cc1,IC50,RAW264.7,1.6 µM
COc1ccc(CCc2cc(=O)c3cc(O)cc(O)c3o2)cc1,IC50,Mushroom tyrosinase,51.5 µM
COc1ccc(CCc2cc(=O)c3cc(O)c(O[C@@H]4c5oc(CCc6ccccc6)cc(=O)c5[C@H](O)[C@@H](O)[C@H]4O)cc3o2)cc1,IC50,[5],4.3 µM
COc1ccc(CCc2cc(=O)c3c(O)c(O)ccc3o2)cc1O,IC,[7],0.31 µM
O=c1cc(CCc2ccccc2)oc2c(O)cc(O)cc12,IC50,Staphylococcus aureus,220 µM
C=C(CO[C@H]1c2c(oc(CCc3ccccc3)cc2=O)[C@H]2O[C@H]2[C@H]1O)[C@@H]1CC[C@@]2(O)CCCC[C@@]2(C)C1,IC50,SGC-7901,10.9 µM
same,IC50,K562,10.9 µM
same,IC50,HeLa,10.9 µM
same,IC50,A549 [4],10.9 µM
COc1ccc(CCc2cc(=O)c3cc(OC)c(OC)cc3o2)cc1,IC,[7],0.31 µM
COc1cc2oc(CCc3ccccc3)cc(=O)c2cc1O,IC,[7],0.31 µM
COc1ccc(CCc2cc(=O)c3c(o2)[C@H]2O[C@H]2[C@@H](O)[C@@H]3O)cc1O,inhibition,Acetylcholinesterase [1],17.5%
COc1ccc(CCc2cc(=O)c3cc4c(cc3o2)O[C@H]2c3c(oc(CCc5ccccc5)cc3=O)[C@H](O)[C@@H](O4)[C@@H]2O)cc1,IC50,Bel-7402,44.7 µM
O=c1cc(CCc2ccccc2)oc2c(O)ccc(O)c12,IC50,RAW264.7,1.6 µM
same,IC50,Staphylococcus aureus,220 µM
COc1ccc(CCc2cc(=O)c3c(o2)[C@@H]2O[C@@H]2[C@@H]2O[C@H]32)cc1O,inhibition,Acetylcholinesterase [1],17.5%
C/C1=C\CC/C(C(=O)O[C@@H]2c3oc(CCc4ccccc4)cc(=O)c3[C@H](O)[C@@H](O)[C@H]2O)=C/CC(C)(C)/C=C/C1,IC50,A549 [2],17.6 µM
COc1cc(C[C@@H](O)c2cc(=O)c3c(O)cc(O)cc3o2)ccc1O,inhibition,[3],56.1%
COc1ccc(CCc2cc(=O)c3cc(O)c(OC)cc3o2)cc1O,IC50,Mushroom tyrosinase,89 µM
CO[C@@H]1c2c(oc(CCc3ccccc3)cc2=O)[C@H](O)[C@@H](O)[C@H]1O,inhibition,Acetylcholinesterase [1],17.5%
COc1ccc(CCc2cc(=O)c3cc(O)c(O)cc3o2)cc1,IC50,SGC-7901,5.76 µM
same,IC50,Bel-7402,5.76 µM
same,IC50,K562,5.76 µM
CCCOC(=O)c1cc(O)c(O)c(O)c1,inhibition,[3],97.4%
O=c1cc(CCc2ccccc2)oc2c1[C@H](O)[C@@H](O)[C@@H](O)[C@@H]2Oc1cc2oc(CCc3ccccc3)cc(=O)c2cc1O,IC50,[5],4.2 µM
C=C(C)[C@H]1CC[C@@]2(C)CCCC(C(=O)O[C@H]3c4oc(CCc5ccccc5)cc(=O)c4[C@@H](O)[C@H](O)[C@@H]3O)=C2C1,IC50,A549 [2],17.6 µM
COc1ccc(CCc2cc(=O)c3c(o2)[C@@H](O)[C@H](O)[C@H](O)[C@H]3OC)cc1,inhibition,Acetylcholinesterase [1],17.5%
COc1ccc(CCc2cc(=O)c3c(o2)[C@@H](Oc2cc(O)cc4c(=O)cc(CCc5ccccc5)oc24)[C@H](O)[C@H](O)[C@H]3O)cc1,IC50,[5],7.9 µM
COc1ccc(CCc2cc(=O)c3c(o2)[C@H]2O[C@H]2[C@@H](O)[C@H]3OC)cc1O,IC50,Acetylcholinesterase [8],442 µM
COc1ccc2c(=O)cc(CCc3ccccc3)oc2c1,IC,[7],0.31 µM
COc1ccc(CCc2cc(=O)c3c(o2)[C@H]2O[C@H]2[C@@H](O)[C@H]3OC)cc1,IC50,Acetylcholinesterase [8],156 µM
